Results taken from patent US4909257A, “Method for attaining in vivo tissue-specific contrast by nuclear magnetic resonance imaging” (priority 1989, dated 1990).

Legend:
normal BALB/C mice = assay: Toxicity (acute lethality) after i.v. tail vein injection in mice; type: in vivo; conditions: 0.2 mL, five BALB/C mice per dose group, 7 days
Method: Solutions were prepared to evaluate the toxicity of the chelators and ferric complexes of the chelators.
A 1.2 M stock ferric solution was prepared by dissolving 32 g of FeCl3 * 6 H2 O in 100 mL of 0.1 N HCl. It was standardized by EDTA titration using Variamine Blue B indicator.
A solution or suspension of 10 mmoles of each ligand in 20 mL of water was 70-80% neutralized by reaction with NaOH. The resulting solution (pH~9) was added dropwise to a solution of 10.1 mmoles of FeCl3 in 10 mL of water. The reaction mixture was adjusted to pH 7.0 with solid NaHCO3 and stirred at 60°-80° C. for two hours. It then was ccentrifuged, and the supernatant was filtered through a 0.22 micron filter. […] Th filtrate was concentrated on a rotary evaporator, the pH adjusted to 7.0, and the volume adjusted to 20 mL.
Tiron was obtained as the sodium salt. An aqueous 0.5 M solution was treated with a 2% excess of FeCl3, and the reaction mixture was worked up as above.
A suspension of 3.6 g (10 mmoles) of EHPG in 15 mL of water was reacted with 17 mL of 2 N NaOH. The resulting dark yellow-orange solution was added dropwise to a solution of 2.7 g […] of FeCl3 * 6 H2 O in 10 mL of water. The reaction mixture was warmed to 60°-80° C. and held at that temperature for 2 hours. The thick orange-red suspension was diluted to 120 mL and heated to 90°-100° C. The hot suspension was filtered through filter aid, and the filtrate was allowed to cool to room temperature.
Rather than crystallizing the product, the pH of the reaction mixture was adjusted to 7.0 with NaHCO3 and filtered. The filtrate was used for subsequent experiments after appropriate volume adjustments and Fe determination.
For each compound at each dose, five normal BALB/C mice weighing 19-22 g were treated with test solution by injection into the tail vein. The injection volumes were approximately 0.2 mL. The behavior and condition of the mice were monitored for 1 week.

[1] = Magnetic resonance imaging contrast enhancement (2 Tesla, coronal spin echo); type: in vivo, BALB/C mice; conditions: for MRI: urinary bladder concentration: mouse, in vivo; for MRI: increase in signal intensity in the gall bladder: in contrast to Fe-EHPG and Fe-HBED
[2] = Organ distribution and clearance of 59Fe-labeled complexes; type: in vivo, BALB/C mice
Method: ^59 Fe was obtained as 0.06 M FeCl3 in 0.5 N HCl; the specific activity was approximately 20 mCi/mmole (1.2 mCi/mL). Labeled commplexes were preared by treating in a Teflon vial 10 uL of ^59 FeCl3 with 25 uL of 2.0×10^-2 M solution of ligand, followed by 0.25 mL of 0.36 M, pH 7.3 Na HEPES buffer and 0.74 mL of water. The reaction mixture was held at 80° C. for 2 hours and then treated with 0.2 mL of 0.12 M solution of Fe-ligand complex. The resulting solution was filtered through a 0.22 u filter. A 0.2 mL dose contained 0.004 mmole of Fe-chelate with 2 uCi of ^59 Fe. ^59 Fe acetate was prepared as above, but without addition of unlabeled carrier Fe acetate.
For each complex shown in FIG. 1, a group of five BALB/C mice were treated as above with 0.2 mmole/Kg of labeled Fe-complex containing approximately 2 uCi of ^59 Fe. The animals were counted immediately after injection and at 2 hours, 1, 2, 4, and 7 days. Whole body counts were obtained using a Nuclear Chicago Tobor chamber gamma counter. Raw counts were background-subtracted and back-decayed to t0, the time of injection. An ^59 Fe standard and background were counted at each time point.
After the appropriate time period, the animals were sacrificed and dissected. Organ weights were measured, and the organs were counted in a gamma counter. Due to its small size, the gall bladder was combined with the small intestine for weighing and counting. An ^59 Fe standard was also counted at each time point. Raw counts were background-subtracted and back-decayed to t0, the time of injection. Activity was computed as a fraction of injected dose per gram of tissue.

[3] = Dose needed for NMR contrast enhancement; type: in vivo; conditions: doses as low as

Row | Molecule | LD-100 (minimum dose for which 100% mortality was observed for seven days post injection) (normal BALB/C mice) [mmol/kg] | LD-0 (maximum dose at which no mortality was observed for seven days post injection) (normal BALB/C mice) [mmol/kg] | MRI: urinary bladder concentration [1] | MRI: increase in signal intensity in the gall bladder [1] | also measured
1 | O=C([O-])CN(CCO)CCN(CC(=O)[O-])CC(=O)[O-].[Fe+3] [Fe--HEDTA] | 0.5 | – | – | – | –
2 | O=C(O)CN(CC(=O)O)[C@@H]1CCCC[C@H]1N(CC(=O)O)CC(=O)O (relative stereo) [CDTA, trans-1,2-cyclohexanediaminotetraacetic acid] | 0.5 | 0.05 | – | – | –
3 | O=C([O-])C(NCCNC(C(=O)[O-])c1ccccc1[O-])c1ccccc1[O-].[Fe+3] (stereo not drawn) [Fe--EHPG] | – | 0.9 | concentrated in the urinary bladder | – | MRI: gall bladder contrast at 50 minutes ([1]; 50 minutes post-contrast): gall bladder contrast remains markedly high; MRI: liver intensity at 50 minutes ([1]; 50 minutes post-contrast): liver intensity has decreased; MRI: gall bladder enhancement, later ([1]; gradual, post-contrast): gradually becomes brighter than the surrounding liver; MRI: liver enhancement ([1]; post-contrast, initial): first concentrate in the liver; MRI: gall bladder enhancement, initial ([1]; while agent first concentrates in the liver): gall bladder remains unenhanced; liver level of 59Fe over time ([2]; 0.2 mmole/Kg labeled Fe-complex, fraction of injected dose per gram of tissue, FIGS. 2 and 3): initially high and then decreased; large intestine levels at 6 hours ([2]; gut tissue and contents, final time of 6 hours): exceeded all of the other values; large intestine levels, up to the 2 hour time point ([2]; gut tissue and contents, up to 2 hours): started and remained lower than the liver or small intestine values; small intestine values over time ([2]; small intestine combined with gall bladder, out to 6 hours): initially low, rose to a maximum at about 1-2 hours, and then decreased out to 6 hours; time of maximum small intestine value ([2]; small intestine combined with gall bladder, printed as about): 1 to 2 h; lowest dose achieving NMR contrast enhancement [3]: 1 mg contrast agent per kilogram weight of the animal
4 | GD-DTPA [reference compound] | – | – | concentrated in the urinary bladder | essentially none in the gall bladder | –
5 | CC(=O)N([O-])CCCCCNC(=O)CCC(=O)N([O-])CCCCCNC(=O)CCC(=O)N([O-])CCCCCN.[Fe+3] [Fe--DF] | 2 | 0.5 | concentrated in the urinary bladder | essentially none in the gall bladder | –
6 | CC(=O)N(O)CCCCCNC(=O)CCC(=O)N(O)CCCCCNC(=O)CCC(=O)N(O)CCCCCN [DF, Desferrioxamine B] | 1 | 0.5 | – | – | –
